The values below come from patent US11071768B2, “Caspofungin compositions for inhalation” (TRILOGY THERAPEUTICS, INC., priority 2018, dated 2021).

The conditions of data set [1]: cited from earlier work.
Data set [2] concerns Candida krusei ATCC 6258. The data set is described as follows: In vitro broth microdilution assay (CLSI). The format is cell-based. The protocol: (§1) The antifungal potency of the test article(s) was measured using the in vitro broth microdilution assay under assay conditions described by the Clinical and Laboratory Standards Institute. In this assay, the Minimum Inhibitory Concentration (MIC) is defined as the lowest concentration of an agent that causes a specified reduction in visible growth of the microorganism. The Minimal Effective Concentration (MEC) is defined as the lowest concentration of an agent that leads to the growth of small, rounded, compact hyphal forms as compared to the hyphal growth seen in the growth control well. In this study, MIC values are determined for the 9 Candida species and Cryptococcus neoformans. MEC values are determined for 3 filamentous fungi (2 Aspergillus fumigatus and Trichophyton rubrum). Test articles were prepared as the following:
(§2) The 3.2 mg/mL working stock solution was 2-fold diluted serially in 0.9% NaCl to prepare a total of eleven 50-fold stock solutions, concentrations ranging from 3.2 to 0.003 mg/mL. A 4 μL aliquot of each dilution was added to 196 μL of broth medium seeded with the organism suspension in wells of a 96 well plate (fungal cell count: 1×10^3 to 1×10^4 colony forming units per mL). The final volume was 200 μL in each well. Following incubation, the test plates were visually examined and wells were scored for growth or complete growth inhibition to define the MIC values. Microscopy examination was used to determine the MEC values. Each test substance was evaluated in duplicate and the results below are the duplicate test values. Vehicle-control and an active reference agent were used as blank and positive controls, respectively.
Background: Broth dilution looks for growth in wells or tubes with falling amounts of substance.

For data set [3], the system named is Candida glabrata ATCC 36583. In words: In vitro broth microdilution assay (CLSI). The format is cell-based. As to the method: as §1, §2
The subject of data set [4] is Candida albicans Azole-R (20183.073). In words: In vitro broth microdilution assay (CLSI). The format is cell-based. As to the method: as §1, §2
In data set [5] the test system is Trichophyton rubrum ATCC 10218. The data set is described as follows: In vitro broth microdilution assay (CLSI). The format is cell-based. As to the method:
as §1, §2

Data set [6] has as its system Candida albicans ATCC90028. In words: In vitro broth microdilution assay (CLSI). Type of data set: cell-based. As to the method: as §1, §2
Data set [7] has as its system Candida albicans ATCC44858. The data set is described as follows: In vitro broth microdilution assay (CLSI). Type of data set: cell-based. As to the method: as §1, §2
Data set [8] deals with Candida tropicalis ATCC 200956. In words: In vitro broth microdilution assay (CLSI). Type of data set: cell-based. The protocol:
as §1, §2

Data set [9] has as its system Candida albicans Azole-R (20186.025). In words: In vitro broth microdilution assay (CLSI). Type of data set: cell-based. As to the method: as §1, §2
Data set [10] relates to Candida parapsilosis ATCC 22019. The data set is described as follows: In vitro broth microdilution assay (CLSI). Type of data set: cell-based. The protocol: as §1, §2
The test system of data set [11] is Cryptococcus neoformans ATCC 24067. The data set is described as follows: In vitro broth microdilution assay (CLSI). Type of data set: cell-based. The protocol:
as §1, §2

For data set [12], the system named is Aspergillus fumigatus ATCC 13073. In words: In vitro broth microdilution assay (CLSI). Type of data set: cell-based. The protocol: as §1, §2
Data set [13] deals with Aspergillus fumigatus ATCC204305. In words: In vitro broth microdilution assay (CLSI). Type of data set: cell-based. The protocol: as §1, §2
The nature of data set [14]: KF water content of lyophilized formulations. The format is physicochemical. The conditions noted are these: lyo cake, T0; listed as API (lyo process). From the text:
Tables 17 and 18 summarize the % water content measured of the prepared formulations.

Data set [15] can be described thus: Storage stability of lyophilized formulations by HPLC. The format is physicochemical. To be noted: for RT 26.1 (hydrolysis degradation product) / RT 37.3 (dimerization degradation product) / HPLC purity % (total caspofungin): lyophilized. As to the method: General: HPLC analysis was carried out on a Waters 2695 separations module equipped with an autosampler and a Waters 996 photodiode array detector. The HPLC method is described below:
Aliquots of 0.5 mL of each formulation listed in Table 3 were frozen on dry ice for 30 min and lyophilized for 40 h to obtain white cakes. A portion of each cake was reconstituted in 1 mL of deionized water and analyzed by HPLC. The vials were stoppered, crimp sealed and placed on stability at 5° C. and 40° C.
Each liquid formulation in Table 5 was equally split into two vials, frozen on dry ice for 1 h and lyophilized for 90 h to obtain white cakes. The vials were stoppered, crimp sealed and placed on stability at 5° C. and 40° C.
The liquid formulations to be lyophilized were prepared according to Table 6. Aliquots of 0.5 mL of each liquid formulation were placed in 3 mL glass vials, frozen on dry ice for 40 min. The vials were partially stoppered with lyo septa and lyophilized for 5 days. The vials were placed on stability at 5° C., ambient (dark) and −20° C.
Fourteen 0.5 mL aliquots of each liquid formulation prepared in part C were placed in 14 3-mL glass vials. The vials were frozen on dry ice for about 1 h and lyophilized for 5 days to obtain white cake. The vials were stoppered, crimp sealed and placed on stability at −20° C., 5° C., and ambient (dark) conditions.
One vial of the lyophilized cake was reconstituted in 1 mL of deionized water to obtain a 10 mg/mL caspofungin diacetate solution. An aliquot (55 μL) was removed and diluted with 1 mL of deionized water for HPLC analysis.
Tables 11, 12, 13, and 14 summarize the total caspofungin (%) as determined by HPLC present for each formulation prepared prior to storage and after several storage conditions. RT as below refers to HPLC retention time. The product with a retention time of 26.1 minutes is a hydrolysis degradation product while the product with a retention time of 37.3 minutes is a dimerization degradation product that is obtained from the dimerization of the hydrolysis products.

The conditions of data set [16]: rat; cited from earlier work.
The mark [17] stands for this setting: Candida albicans ATCC90028 + 50% human serum.

Values after ≈ are worked out from the molar mass of the structure shown. Values joined by “and” are separate entries in the source; they are usually repeats but may differ in a detail not shown here. Identical values can stand only once. Starred links: 1 amine or outer side, 2 acyl side, 3 side chain; linkers in the order of their positions; H or OH if unused. Positions of bridges follow the written chain, without caps; N, C: chain ends. Non-standard residues stand in square brackets, D forms with d. Residues, ends and D or L forms follow the SMILES beside them. *: point of attachment. hTyr(3S-OH,4S-OH,3'-OSO3H) = N[C@H](C(=O)O)[C@H](O)[C@@H](O)c1ccc(O)c(OS(=O)(=O)O)c1; pTerphenylCO(4''-OnC5H11) = CCCCCOc1ccc(-c2ccc(-c3ccc(C(=O)*)cc3)cc2)cc1; Orn(4R-OH,5R-OH) = O=C([C@H](C[C@@H](O)[C@@H](O)N[*:3])N[*:1])[*:2]; hTyr(3S-OH,4S-OH) = N[C@H](C(=O)O)[C@H](O)[C@@H](O)c1ccc(O)cc1; Pro(3S-OH,4S-Me) = C[C@H]1CN[C@H](C(=O)O)[C@H]1O; X1 = CCCCCOc1ccc(-c2cc(-c3ccc(C(=O)*)cc3)no2)cc1; Gln(3R-OH) = NC(=O)C[C@@H](O)[C@H](N)C(=O)O; Hyp = O=C(O)[C@@H]1C[C@@H](O)CN1 A value given as a limit tells only on which side of the number the result lay.

As for `CCCCCOc1ccc(-c2ccc(-c3ccc(C(=O)N[C@H]4C[C@@H](O)[C@@H](O)NC(=O)[C@@H]5[C@@H](O)[C@@H](C)CN5C(=O)[C@H]([C@@H](C)O)NC(=O)[C@H]([C@H](O)[C@@H](O)c5ccc(O)cc5)NC(=O)[C@@H]5C[C@@H](O)CN5C(=O)[C@H]([C@@H](C)O)NC4=O)cc3)cc2)cc1` [anidulafungin] ({pTerphenylCO(4''-OnC5H11)}-[Orn(4R-OH,5R-OH)]T[Hyp][hTyr(3S-OH,4S-OH)]T[Pro(3S-OH,4S-Me)]; lactam 1-C), in [1] (rat tissues), the “Time that levels stay above MICs for common pathogens” value is 72 h. Besides, in [1] (rat), the “Exposure in tissues (liver, lung, spleen, kidney) relative to plasma” value is 9-12 fold and the “Time to peak concentrations in tissues” value is ≤ 30 min.

One may read the MIC as the lowest concentration found to suppress growth. On to `C[C@@H]1[C@H](O)[C@@H](C)/C=C/C=C/C=C/C=C/C=C/C=C/C=C/[C@H](O[C@@H]2O[C@H](C)[C@@H](O)[C@H](N)[C@@H]2O)C[C@@H]2O[C@](O)(C[C@@H](O)C[C@@H](O)[C@H](O)CC[C@@H](O)C[C@@H](O)CC(=O)O[C@H]1C)C[C@H](O)[C@H]2C(=O)O` [amphotericin B], for which the MIC in data set [2] came to 0.25 µg/mL (≈ 0.271 µM); in [3], 0.125 µg/mL (≈ 0.135 µM); in [4], 0.125 µg/mL (≈ 0.135 µM); in [5], 0.125 µg/mL (≈ 0.135 µM); in [6] (Candida albicans ATCC90028), 0.125 µg/mL (≈ 0.135 µM); in data set [6] (setting [17]), 0.25 µg/mL. Moreover, the MIC in data set [7] came out at 0.125 µg/mL (≈ 0.135 µM); in [8], 1 µg/mL (≈ 1.08 µM); in [9], 0.25 µg/mL (≈ 0.271 µM); in [10] it was 0.25 µg/mL (≈ 0.271 µM).

On to caspofungin diacetate, for which the minimum inhibitory concentration (MIC) came to 1 µg/mL in [2]; 16 µg/mL in data set [11]; 0.25 µg/mL in data set [3]; 0.25 µg/mL in data set [4]; 0.25 µg/mL in data set [6] (Candida albicans ATCC90028); 0.125 µg/mL in data set [6] (setting [17]). Also, the minimal inhibitory concentration (MIC) in data set [7] came out at 0.25 µg/mL; in data set [8], 0.25 µg/mL; in data set [9], 0.25 µg/mL; in data set [10], 1 µg/mL. Further, the MEC in data set [12] is 0.0625 µg/mL; in data set [5], 0.125 µg/mL; in data set [13], 0.125 µg/mL. The “KF water content %” value in [14] is 6.16% and 3.94%. Besides, the “HPLC purity of control” value in data set [15] (Pure API control, as printed in the head) is listed as 99.72%). Besides, the “RT 26.1 (hydrolysis degradation product)” value in data set [15] (40° C. 1 week) is recorded as 2.88%; in data set [15] (40° C. 3 week) it was 6.09%; in data set [15] (T0), 2.17%. Besides, the “RT 37.3 (dimerization degradation product)” value is reported as 9.26% in data set [15] (40° C. 1 week), 4.38% in data set [15] (40° C. 3 week) and 1.57% in data set [15] (T0). Also, the “HPLC purity % (total caspofungin)” value in data set [15] (40° C. 1 week, listed as API (lyo process)) is 82.32%; in [15] (40° C. 1 week, listed as Pure API), 88.48%; in data set [15] (40° C. 3 week) it was 75.71%; in data set [15] (T0, listed as API (lyo process)), 95.82% and 95.42%.

Consider `CCCCCOc1ccc(-c2cc(-c3ccc(C(=O)N[C@H]4C[C@@H](O)[C@@H](O)NC(=O)[C@@H]5[C@@H](O)[C@@H](C)CN5C(=O)[C@H]([C@H](O)CC(N)=O)NC(=O)[C@H]([C@H](O)[C@@H](O)c5ccc(O)c(OS(=O)(=O)O)c5)NC(=O)[C@@H]5C[C@@H](O)CN5C(=O)[C@H]([C@@H](C)O)NC4=O)cc3)no2)cc1` [Micafungin, micafungin] (X1-[Orn(4R-OH,5R-OH)]T[Hyp][hTyr(3S-OH,4S-OH,3'-OSO3H)][Gln(3R-OH)][Pro(3S-OH,4S-Me)]; lactam 1-C), for which, in [16], the “Exposure in the kidney relative to plasma” value is 3.4 fold, the “Exposure in the liver relative to plasma” value is recorded as 1.6 fold and the “Exposure in the lung relative to plasma” value was 2.9 fold.
